Measurements as given in patent US8063101B2, “Carotenoid analogs and derivatives for the prevention of platelet aggregation” (Cardax Pharmaceuticals, Inc., priority 2007, dated 2011).

Tests used:
[1] = system: left carotid artery (LCA) thrombosis; test: Canine thrombosis model: left carotid artery reocclusion following rt-PA fibrinolytic therapy; format: in vivo, beagle dogs; details: for Incidence of Re-occlusion: 0.9% NaCl group 5/7; for Platelet Count (Post rt-PA) / Time to thrombolysis: mean±SEM; for reduction in thrombus weights compared to 0.9% NaCl solution: end of protocol
Description: The experimental model used is a modification of that described by Hong, et al., (Thromb Res 117: 333-342, 2006), Rebello, et al., (Arterioscler Thromb Vasc Biol 18: 954-960, 1998), and Rote, et al. (Cardiovasc Res 27: 500-507, 1993). Healthy male or female purpose-bred beagle dogs (9-13 kg) were anesthetized with sodium pentobarbital (30 mg/kg, i.v.), intubated and ventilated with room air at a tidal volume of 30 ml/kg and a rate of 12 breaths per minute. The left carotid artery (LCA) was exposed by blunt dissection using care not to injure the vessel. An external adjustable stainless steel constrictor was shaped to fit each vessel and adjusted with a nylon screw (2 mm in diameter) to reduce the pulsatile flow pattern by 50% without altering the mean carotid artery blood flow rate. Vascular injury was accomplished with the application of a low anodal current to the intimal surface of the vessel via an intravascular electrode composed of a Teflon® insulated, silver-coated, copper wire. The intravascular electrode was connected to the positive pole (anode) of a dual-channel square wave generator (Grass S88 stimulator) and a Grass Constant Current Unit; model CCUIA (Grass Instrument Division, Astro-Med, Inc. West Warwick, R.I.). The cathode was attached at a remote subcutaneous site. The current (300 μA) applied to the intimal surface of the vessel was monitored continuously. The intravascular electrode and mechanical constrictor were upstream with respect to the flow probe. Blood flow in the carotid artery was quantified using a graded patency scoring system of 0-3 as described previously (16), in which a score of 0 represents no flow (total occlusion), 1-2 represents varying degrees of reduced and cyclic patterns of flow and 3 represents non-oscillatory or uninterrupted blood flow.
FIG. 8 illustrates the experimental protocol. Twenty-eight dogs were randomized between four treatment groups receiving either DDA (10, 30 or 50 mg/kg i.v. n=7 per group) or 0.9% NaCl (n=7). Experimental thrombosis of the left carotid artery (LCA) was induced to achieve total occlusion of blood flow. Thirty minutes later, the animals received an intravenous infusion of DDA or an equivalent volume of 0.9% NaCl solution for thirty minutes (flow rate depended on dose of DDA). The drug treatment was followed by intra-carotid administration of rtPA (0.54 μg/kg bolus+3.26 μg/kg/h infusion) delivered immediately proximal to the occlusive thrombus. The infusion of rtPA was discontinued 10 min after establishing 20% of the original flow. The end-point determinations consisted of: (1) time to thrombolysis, (2) incidence of LCA reocclusion (secondary thrombosis), (3) vessel patency scores assessed by dynamic flow recordings, and (4) thrombus weight.
The data are expressed as mean±SEM and were analyzed by one-way analysis of variance for group comparisons followed by a Dunnett's post hoc t-test to determine the level of significance. The incidence of carotid artery reocclusion was compared between the groups by chi-square test. The change over time in the vessel blood flow patency score was compared between two groups by two-way analysis of variance followed by Bonferroni post-tests to determine the level of significance. Values are considered statistically different at p<0.05.

[2] = Hemodynamic variables during canine thrombosis protocol; format: in vivo, beagle dogs
[3] = DDA 10 mg/kg i.v. followed by rt-PA
[4] = DDA 30 mg/kg i.v. followed by rt-PA
[5] = DDA 50 mg/kg i.v. followed by rt-PA

## CC1=C(/C=C/C(C)=C/C=C/C(C)=C/C=C/C=C(C)/C=C/C=C(C)/C=C/C2=C(C)C(=O)C(OC(=O)CCC(=O)O)CC2(C)C)C(C)(C)CC(OC(=O)CCC(=O)O)C1=O (centres unmarked) [DDA, Disodium disuccinate astaxanthin]
[1]; [3]
  Incidence of Re-occlusion: 6/7
  Platelet Count (Post rt-PA): 352 ± 37
  Time to thrombolysis: 20.3 ± 6.7 min
[1]; DDA 10 mg/kg, 0-30 min after rt-PA
  arterial patency score (0-3): 1.4 ± 0.2
[1]; DDA 10 mg/kg, 30-60 min after rt-PA
  arterial patency score (0-3): 1.3 ± 0.4
[1]; DDA 10 mg/kg, 60-90 min after rt-PA
  arterial patency score (0-3): 1.1 ± 0.3
[1]; DDA 10 mg/kg, 90-120 min after rt-PA
  arterial patency score (0-3): 1.1 ± 0.4
[1]; DDA 10 mg/kg, 120-150 min after rt-PA
  arterial patency score (0-3): 0.4 ± 0.4
[1]; DDA 10 mg/kg, 150-180 min after rt-PA
  arterial patency score (0-3): 0.4 ± 0.4
[1]; [4]
  Incidence of Re-occlusion: 3/7
  Platelet Count (Post rt-PA): 316 ± 32
  Time to thrombolysis: 20.6 ± 7.9 min
[1]; DDA 30 mg/kg i.v.
  reduction in thrombus weights compared to 0.9% NaCl solution: 43±4%
[1]; DDA 30 mg/kg, 0-30 min after rt-PA
  arterial patency score (0-3): 1.3 ± 0.2
[1]; DDA 30 mg/kg, 30-60 min after rt-PA
  arterial patency score (0-3): 1.3 ± 0.4
[1]; DDA 30 mg/kg, 60-90 min after rt-PA
  arterial patency score (0-3): 1.0 ± 0.4
[1]; DDA 30 mg/kg, 90-120 min after rt-PA
  arterial patency score (0-3): 1.6 ± 0.5
[1]; DDA 30 mg/kg, 120-150 min after rt-PA
  arterial patency score (0-3): 1.1 ± 0.5
[1]; DDA 30 mg/kg, 150-180 min after rt-PA
  arterial patency score (0-3): 1.4 ± 0.5
[1]; [5]
  Incidence of Re-occlusion: 1/7
  Platelet Count (Post rt-PA): 363 ± 66
  Time to thrombolysis: 24.0 ± 6.0 min
[1]; DDA 50 mg/kg i.v.
  reduction in thrombus weights compared to 0.9% NaCl solution: 42±5%
[1]; DDA 50 mg/kg, 0-30 min after rt-PA
  arterial patency score (0-3): 1.9 ± 0.3
[1]; DDA 50 mg/kg, 30-60 min after rt-PA
  arterial patency score (0-3): 2.4 ± 0.3
[1]; DDA 50 mg/kg, 60-90 min after rt-PA
  arterial patency score (0-3): 2.3 ± 0.4
[1]; DDA 50 mg/kg, 90-120 min after rt-PA
  arterial patency score (0-3): 2.3 ± 0.5
[1]; DDA 50 mg/kg, 120-150 min after rt-PA
  arterial patency score (0-3): 2.3 ± 0.4
[1]; DDA 50 mg/kg, 150-180 min after rt-PA
  arterial patency score (0-3): 2.3 ± 0.5
[1]; DDA 10, 30 or 50 mg/kg followed by rt-PA
  time to clot lysis compared with 0.9% NaCl-treated animals: similar
[1]; dog, in vivo
  whole blood platelet counts: unaffected
[1]; intermediate and highest doses of DDA (30 and 50 mg/kg)
  vessel patency score during the protocol: progressive improvement
[2]; DDA 50 mg/kg
  time for blood pressure to return to original values: ≤ 30 min
[2]; DDA 50 mg/kg, seen in 5 dogs
  transient decrease in arterial blood pressure: < 15%
[2]; all groups (DDA 10, 30, 50 mg/kg)
  mean arterial blood pressure and heart rate throughout the protocol: did not differ significantly
